Here are results for two compounds from ChEMBL document CHEMBL4725338, “Discovery of novel histone lysine methyltransferase G9a/GLP (EHMT2/1) inhibitors: Design, synthesis, and structure-activity relationships of 2,4-diamino-6-methylpyrimidines” (Bioorg Med Chem Lett, 2020).

In data set [1] the target is T1, Histone-lysine N-methyltransferase EHMT2 (Homo sapiens, UniProt Q96KQ7).
T1 sequence (Q96KQ7 whole entry): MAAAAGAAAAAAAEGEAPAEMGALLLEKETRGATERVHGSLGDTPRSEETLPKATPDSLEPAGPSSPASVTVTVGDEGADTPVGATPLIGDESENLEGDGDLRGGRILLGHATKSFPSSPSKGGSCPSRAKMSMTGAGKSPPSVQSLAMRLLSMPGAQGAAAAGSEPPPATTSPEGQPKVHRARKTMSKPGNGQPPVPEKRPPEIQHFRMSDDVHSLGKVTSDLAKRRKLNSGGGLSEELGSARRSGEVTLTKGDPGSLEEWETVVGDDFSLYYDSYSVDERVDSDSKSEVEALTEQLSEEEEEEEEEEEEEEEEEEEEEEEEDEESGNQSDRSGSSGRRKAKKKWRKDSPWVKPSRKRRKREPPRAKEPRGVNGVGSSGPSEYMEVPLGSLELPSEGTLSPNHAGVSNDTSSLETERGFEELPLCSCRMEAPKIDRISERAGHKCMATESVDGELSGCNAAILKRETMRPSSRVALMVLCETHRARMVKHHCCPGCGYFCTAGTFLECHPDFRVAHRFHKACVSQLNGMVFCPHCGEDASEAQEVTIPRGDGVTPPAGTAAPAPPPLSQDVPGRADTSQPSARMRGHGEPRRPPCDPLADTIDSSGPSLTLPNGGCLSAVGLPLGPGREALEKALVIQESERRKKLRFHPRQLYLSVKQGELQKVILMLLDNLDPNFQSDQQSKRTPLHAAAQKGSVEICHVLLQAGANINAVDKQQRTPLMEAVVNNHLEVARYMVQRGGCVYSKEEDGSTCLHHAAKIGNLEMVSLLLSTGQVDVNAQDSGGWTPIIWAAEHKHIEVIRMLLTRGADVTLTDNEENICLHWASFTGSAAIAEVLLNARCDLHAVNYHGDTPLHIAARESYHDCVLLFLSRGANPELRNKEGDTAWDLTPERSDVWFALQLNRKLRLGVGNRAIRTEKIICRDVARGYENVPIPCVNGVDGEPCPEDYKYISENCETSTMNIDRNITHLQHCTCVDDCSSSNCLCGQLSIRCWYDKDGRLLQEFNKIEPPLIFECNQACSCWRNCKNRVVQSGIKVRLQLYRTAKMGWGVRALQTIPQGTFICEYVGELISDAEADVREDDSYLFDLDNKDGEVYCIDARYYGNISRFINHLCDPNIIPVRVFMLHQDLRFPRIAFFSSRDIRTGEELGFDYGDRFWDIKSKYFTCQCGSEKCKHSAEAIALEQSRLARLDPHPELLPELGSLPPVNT
As to the kind of experiment: Inhibition G9a (unknown origin).

The nature of data set [2]: Metabolic stability in mouse liver microsomes assessed as compound remaining at 0.5 mg/mL incubated for 0.5 hrs. It counts as ADME, Microsome. To be noted: read-out: Stabilty. On the technique in general: Liver microsomes are a subcellular fraction often used to study metabolism.
Another data set deals with T2, CYP1A2 (Homo sapiens, UniProt P05177).
T2 sequence (P05177 whole entry): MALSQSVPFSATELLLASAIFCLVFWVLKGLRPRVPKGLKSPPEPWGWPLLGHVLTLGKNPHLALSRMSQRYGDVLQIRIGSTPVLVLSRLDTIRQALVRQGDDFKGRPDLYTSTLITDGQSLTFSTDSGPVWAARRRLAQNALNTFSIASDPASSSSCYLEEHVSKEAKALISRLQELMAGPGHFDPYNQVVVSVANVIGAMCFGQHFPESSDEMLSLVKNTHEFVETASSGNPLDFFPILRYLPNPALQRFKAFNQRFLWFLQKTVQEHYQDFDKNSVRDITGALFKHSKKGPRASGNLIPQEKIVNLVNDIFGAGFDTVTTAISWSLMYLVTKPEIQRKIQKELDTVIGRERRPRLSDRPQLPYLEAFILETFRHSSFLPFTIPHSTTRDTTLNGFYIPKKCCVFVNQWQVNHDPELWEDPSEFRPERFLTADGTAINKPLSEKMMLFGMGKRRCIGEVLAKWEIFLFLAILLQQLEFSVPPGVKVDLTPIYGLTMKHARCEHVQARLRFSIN
As to the kind of experiment: Inhibition of CYP1A2 (unknown origin) at 10 uM relative to control. The format is ADME.

Another data set deals with CYP2C19 (Homo sapiens, UniProt P33261). In words: Inhibition of CYP2C19 (unknown origin) at 10 uM relative to control. The format is ADME.
The nature of data set [3]: Cmax in mouse at 10 mg/kg, po. It counts as ADME, organism-based. Also noted: route oral, dose 10 mg/kg. Particulars: in vivo.
The target in the next data set is CYP3A4 (Homo sapiens, UniProt P08684). As to the kind of experiment: Mechanism based inhibition of CYP3A4 in human liver microsome assessed as remaining percentage at 100 uM in presence of substrate ACN preincubated 30 mins followed by substrate addition relative to control. Particulars: liver microsomes, probe ACN (so in the source), read-out: Activity. It counts as ADME.

Data set [4] can be described thus: AUC (0 to infinity) in mouse at 10 mg/kg, po. It counts as ADME, organism-based. The arrangement: time infinity, route oral, dose 10 mg/kg. Particulars: in vivo.
A short description of data set [5]: Tmax in mouse at 10 mg/kg, po. It counts as ADME, organism-based. Particulars: in vivo.
Data set [6] is described as follows: Oral bioavailability in mouse at 10 mg/kg. It counts as ADME, organism-based. Particulars: in vivo.
Data set [7] in a line: Half-life in mouse at 1 mg/kg, iv. Particulars: in vivo. It counts as ADME, organism-based.
The nature of data set [8]: Volume of distribution at steady state in mouse at 1 mg/kg, iv. It counts as ADME, organism-based. To be noted: in vivo, read-out: Vdss.

Chain of CYP3A4 (P08684 whole entry): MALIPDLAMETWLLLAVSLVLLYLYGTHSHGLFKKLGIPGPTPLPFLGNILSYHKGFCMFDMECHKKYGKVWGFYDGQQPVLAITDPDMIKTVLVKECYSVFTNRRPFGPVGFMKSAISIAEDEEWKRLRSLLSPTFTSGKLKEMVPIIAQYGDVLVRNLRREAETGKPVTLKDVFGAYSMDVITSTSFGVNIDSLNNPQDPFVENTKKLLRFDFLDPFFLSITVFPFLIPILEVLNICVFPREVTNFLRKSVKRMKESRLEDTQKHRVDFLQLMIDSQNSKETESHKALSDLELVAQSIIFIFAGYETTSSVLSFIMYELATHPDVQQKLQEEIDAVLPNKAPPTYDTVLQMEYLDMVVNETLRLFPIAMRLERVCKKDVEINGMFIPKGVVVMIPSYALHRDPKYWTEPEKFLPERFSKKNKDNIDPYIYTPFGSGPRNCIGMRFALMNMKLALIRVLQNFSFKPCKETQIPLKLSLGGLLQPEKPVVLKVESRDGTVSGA
Chain of CYP2C19 (P33261 whole entry): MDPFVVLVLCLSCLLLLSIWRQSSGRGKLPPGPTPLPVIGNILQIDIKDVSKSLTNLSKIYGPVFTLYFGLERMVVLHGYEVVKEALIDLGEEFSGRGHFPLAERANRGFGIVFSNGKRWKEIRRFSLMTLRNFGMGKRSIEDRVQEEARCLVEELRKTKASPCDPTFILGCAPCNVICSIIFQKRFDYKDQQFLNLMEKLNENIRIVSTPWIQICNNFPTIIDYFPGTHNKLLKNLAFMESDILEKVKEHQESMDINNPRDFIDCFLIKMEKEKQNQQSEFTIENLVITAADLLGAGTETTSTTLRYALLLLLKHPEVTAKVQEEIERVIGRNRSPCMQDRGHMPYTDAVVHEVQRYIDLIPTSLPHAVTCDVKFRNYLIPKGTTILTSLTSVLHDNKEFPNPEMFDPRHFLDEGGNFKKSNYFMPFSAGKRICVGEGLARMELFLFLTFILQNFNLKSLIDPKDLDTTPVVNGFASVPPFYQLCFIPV

As to `CNc1cc(C)nc(Nc2ccc(OC)c(C3=CCNCCC3)c2)n1`, the IC50 – broadly, the midpoint of a concentration-inhibition curve – in [1] was found to be 4.31 nM. In addition, the remaining at 0.5 h in data set [2] amounted to 34%. Besides, the inhibition (commonly the drop in the measured response relative to a control, in per cent) at 10 µM turned out to be 0% on CYP1A2 and 9% against CYP2C19. Moreover, the Cmax (in general, the highest concentration seen after dosing) in data set [3] amounted to 450 nM. In addition, the activity at 30 min, 100 µM on CYP3A4 amounted to 80.5%. Also, in data set [4], the AUC(0-inf) – broadly, total exposure, with the tail of the curve extrapolated – is 3.15 µM·h. Besides, the Tmax (commonly the time from dosing to the highest level) in data set [5] is 2 h. In addition, the bioavailability – broadly, dose-corrected exposure relative to a reference, in per cent – in data set [6] stood at 40%. In addition, in data set [7], the half-life (in general, the time needed for the level to fall by half in the phase considered) is 7 h. For the same compound, the Vd in data set [8] is 24.6 L/kg.

In turn, `CNc1cc(C)nc(Nc2ccc(OC)c(OCCCN3CCCC3)c2)n1` yielded an IC50 in data set [1] of 16.9 nM. Moreover, the remaining at 0.5 h in data set [2] was found to be 48%. The values for the inhibition at 10 µM on CYP1A2 and against CYP2C19 were 5% and 3%, respectively. The compound also returned a Cmax in data set [3] of 220 nM. Besides, at CYP3A4, the activity at 30 min, 100 µM was determined as 93.6%. In data set [4], this compound yielded an AUC(0-inf) of 2.86 µM·h. Moreover, the Tmax in data set [5] was 5.5 h. This compound gave a bioavailability in [6] of 17%. Also, the half-life in [7] is 4 h. In addition, the Vd in data set [8] was 8.3 L/kg.
